In the assay the test system is BDF1 mice, B16 melanoma ip, median survival T/C. As to the kind of experiment: NCI In Vivo Anticancer Drug Screen. Data for tumor model B16 Melanoma (intraperitoneal) in B6D2F1 (BDF1) mice. Particulars: endpoint: median survival time, higher = longer survival. Summed up:
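Survival or tumor size is measured after treatment of tumor-bearing mice and normalised to the vehicle-treated control group.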

Setting [1] is: dose: 3.12 mg/kg/injection, schedule: Q01DX009 (ip), vehicle: saline.
[2] abbreviates: dose: 6.25 mg/kg/injection, schedule: Q01DX009 (ip), vehicle: saline.
[3] abbreviates: dose: 12.5 mg/kg/injection, schedule: Q01DX009 (ip), vehicle: saline.
[4] abbreviates: dose: 25.0 mg/kg/injection, schedule: Q01DX009 (ip), vehicle: saline.
[5] abbreviates: dose: 50.0 mg/kg/injection, schedule: Q01DX009 (ip), vehicle: saline.
Setting [6] is: dose: 100.0 mg/kg/injection, schedule: Q01DX009 (ip), vehicle: saline.
The mark [7] stands for this setting: dose: 12.5 mg/kg/injection, schedule: Q01DX009 (ip), vehicle: Klucel (hydroxypropylcellulose) (HPC).
Setting [8] is: dose: 25.0 mg/kg/injection, schedule: Q01DX009 (ip), vehicle: Klucel (hydroxypropylcellulose) (HPC).
Where [9] appears, read: dose: 50.0 mg/kg/injection, schedule: Q01DX009 (ip), vehicle: Klucel (hydroxypropylcellulose) (HPC).
The mark [10] stands for this setting: dose: 6.25 mg/kg/injection, schedule: Q01DX009 (ip), vehicle: Klucel (hydroxypropylcellulose) (HPC).
Setting [11] is: dose: 200.0 mg/kg/injection, schedule: Q01DX009 (ip), vehicle: saline.
[12] abbreviates: dose: 12.5 mg/kg/injection, schedule: Q01DX009 (ip), vehicle: saline with Tween-80.
Where [13] appears, read: dose: 25.0 mg/kg/injection, schedule: Q01DX009 (ip), vehicle: saline with Tween-80.
Setting [14] is: dose: 50.0 mg/kg/injection, schedule: Q01DX009 (ip), vehicle: saline with Tween-80.
Setting [15] is: dose: 100.0 mg/kg/injection, schedule: Q01DX009 (ip), vehicle: saline with Tween-80.
Where [16] appears, read: dose: 100.0 mg/kg/injection, schedule: Q04DX003 (ip), vehicle: Klucel (hydroxypropylcellulose) (HPC).
Setting [17] is: dose: 100.0 mg/kg/injection, schedule: Q01DX009 (ip), vehicle: Klucel (hydroxypropylcellulose) (HPC).
Setting [18] is: dose: 200.0 mg/kg/injection, schedule: Q01DX009 (ip), vehicle: Klucel (hydroxypropylcellulose) (HPC).
[19] abbreviates: dose: 200.0 mg/kg/injection, schedule: Q04DX003 (ip), vehicle: Klucel (hydroxypropylcellulose) (HPC).
[20] abbreviates: dose: 400.0 mg/kg/injection, schedule: Q01DX009 (ip), vehicle: Klucel (hydroxypropylcellulose) (HPC).
[21] abbreviates: dose: 400.0 mg/kg/injection, schedule: Q04DX003 (ip), vehicle: Klucel (hydroxypropylcellulose) (HPC).
The mark [22] stands for this setting: dose: 3.12 mg/kg/injection, schedule: Q01DX009 (ip), vehicle: Klucel (hydroxypropylcellulose) (HPC).

Several values for one entry are separate records, joined by “and”; a condition that tells them apart may be missing. Equal values may be shown once. Inconclusive results and toxic doses are left out. Peptide text beside a SMILES is read from it. * marks the point of attachment. CH2Cl = ClC*

For the compound `C=C1C(=O)OC2CC3(C)CC(O)C(OC(C)=O)C(=C)C3CC12` (centres undefined), the T/C was 109 % of control (dose: 2.5 mg/kg/injection, schedule: Q01DX009 (ip), vehicle: saline); 104 % of control (dose: 5.0 mg/kg/injection, schedule: Q01DX009 (ip), vehicle: saline); 106 % of control (dose: 10.0 mg/kg/injection, schedule: Q01DX009 (ip), vehicle: saline).

Regarding `Nc1nc2c(ncn2C2OC(CO)C(O)C2N)c(=O)[nH]1` (centres undefined), the T/C by setting is: under setting [1], 95 % of control and 110 % of control; under setting [2], 101 % of control and 102 % of control and 104 % of control; under setting [3], 106 % of control and 107 % of control and 110 % of control; (dose: 25.0 mg/kg/injection, schedule: Q01DX005 (ip), vehicle: saline with Tween-80) 104 % of control; under setting [4], 89 % of control and 101 % of control and 112 % of control; (dose: 35.0 mg/kg/injection, schedule: Q01DX005 (ip), vehicle: saline with Tween-80) 104 % of control. Besides, the T/C was 89 % of control and 101 % of control under setting [5]; 95 % of control (dose: 55.0 mg/kg/injection, schedule: Q01DX005 (ip), vehicle: saline with Tween-80); 104 % of control (dose: 80.0 mg/kg/injection, schedule: Q01DX005 (ip), vehicle: saline with Tween-80); 96 % of control under setting [6].

`Oc1ccc2ccccc2c1C1=NNc2n[nH]c(=S)n2N1`: the T/C by setting is: under setting [7], 100 % of control; under setting [8], 103 % of control; under setting [9], 112 % of control.

Regarding `NC1CCC(CCCC2CCCC2)CC1` (centres undefined), the T/C reads like this: under setting [10], 96 % of control; under setting [7], 86 % of control; under setting [8], 89 % of control.

In the case of `Cn1c(=O)c2c(ncn2C)n(C)c1=O`, the T/C reads like this: under setting [5], 116 % of control; under setting [6], 103 % of control; under setting [11], 109 % of control.

For the compound `O=C(/C(=C\c1ccccc1)CN1CCOCC1)c1ccc(Br)cc1`, the T/C is 91 % of control under setting [12], 94 % of control under setting [13], 94 % of control under setting [14] and 89 % of control under setting [15].

On to `O=[N+]([O-])/C(=C/c1ccccc1)c1ccccc1`, for which the T/C was 104 % of control (dose: 6.25 mg/kg/injection, schedule: Q01DX009 (ip), vehicle: saline with Tween-80); 95 % of control under setting [12]; 112 % of control under setting [13].

Regarding `COc1cccc2c1C(=O)c1c(O)c3c(c(O)c1C2=O)C[C@@](O)(C(C)=O)C[C@@H]3OC1CC(N(Cc2ccccc2)Cc2ccccc2)C(O)C(C)O1` (some centres undefined), the T/C reads like this: (dose: 12.5 mg/kg/injection, schedule: Q01DX001 (ip), vehicle: water) 103 % of control; (dose: 25.0 mg/kg/injection, schedule: Q01DX001 (ip), vehicle: water) 113 % of control; (dose: 100.0 mg/kg/injection, schedule: Q01DX001 (ip), vehicle: water) 150 % of control.

For the compound `NC(N)=Nc1nc2ccccc2s1`, the T/C is 105 % of control (dose: 25.0 mg/kg/injection, schedule: Q04DX003 (ip), vehicle: Klucel (hydroxypropylcellulose) (HPC)); 97 % of control (dose: 50.0 mg/kg/injection, schedule: Q04DX003 (ip), vehicle: Klucel (hydroxypropylcellulose) (HPC)); 97 % of control under setting [16].

Regarding `Cc1ccccc1SSc1ccccc1C`, the T/C was 105 % of control under setting [12]; 104 % of control under setting [13]; 98 % of control under setting [14]; 103 % of control under setting [15]; 98 % of control (dose: 200.0 mg/kg/injection, schedule: Q01DX009 (ip), vehicle: saline with Tween-80).

On to `COc1ccccc1N1C(=O)C=CC1=O`, for which the T/C reads like this: (dose: 0.63 mg/kg/injection, schedule: Q01DX009 (ip), vehicle: saline with Tween-80) 93 % of control; (dose: 1.25 mg/kg/injection, schedule: Q01DX009 (ip), vehicle: saline with Tween-80) 89 % of control; (dose: 2.5 mg/kg/injection, schedule: Q01DX009 (ip), vehicle: saline with Tween-80) 87 % of control.

Regarding `Br/C=C/C[N+]12CN3CN(CN(C3)C1)C2`, the T/C by setting is: under setting [3], 117 % of control; under setting [4], 103 % of control; under setting [5], 110 % of control.

As to `O=C(CCl)Oc1cccc([N+](=O)[O-])c1`, the T/C reads like this: under setting [13], 107 % of control; under setting [14], 102 % of control; under setting [15], 101 % of control.

`CC1=CC(=O)c2ccccc2C1=O`: the T/C under setting [13] is 108 % of control and 118 % of control.

As to `COc1ccc(NC(=O)Oc2cc(C)cc(C)c2)cc1`, the T/C by setting is: under setting [17], 96 % of control; under setting [16], 112 % of control; under setting [18], 96 % of control; under setting [19], 106 % of control; under setting [20], 89 % of control; under setting [21], 112 % of control.

`C1CCC2[N-]CC3CCCCC3[N-]CC3CCCCC3[N-]CC3CCCCC3[N-]CC2C1.[Cu+2].[O-][Cl+3]([O-])([O-])O` (centres undefined): the T/C by setting is: under setting [22], 153 % of control; under setting [10], 161 % of control; under setting [7], 164 % of control.

Consider `CN(C)CCCC1(C#N)c2ccccc2CCc2ccccc21`, for which the T/C under setting [1] is 110 % of control, the T/C under setting [2] is 97 % of control, the T/C under setting [3] was 100 % of control and the T/C under setting [4] is 110 % of control.

On to `CC(C)NNC(=O)c1ccccc1N`, for which the T/C is 100 % of control under setting [7], 87 % of control under setting [9], 95 % of control under setting [17] and 97 % of control under setting [18].

`COc1ccccc1NC(=O)Oc1ccc(-c2ccccc2)cc1Br`: the T/C is 100 % of control under setting [17]; 100 % of control under setting [16]; 96 % of control under setting [18]; 90 % of control under setting [19]; 96 % of control under setting [20]; 96 % of control under setting [21].

On to `CCCCCCCCCCCCCCCCOc1ccc(C(=O)CC(=O)OC)cc1`, for which the T/C was 105 % of control under setting [17] and 94 % of control under setting [18].

Regarding `CCN1CC(CCN2CCOCC2)C(c2ccccc2)(c2ccccc2)C1=O` (centres undefined), the T/C by setting is: under setting [2], 91 % of control; under setting [3], 104 % of control; under setting [4], 100 % of control; under setting [5], 102 % of control; under setting [6], 100 % of control.

On to `Cc1c(Cl)cccc1NC(=O)COc1ccc(Cl)cc1`, for which the T/C under setting [12] was 96 % of control, the T/C under setting [13] was 90 % of control and the T/C under setting [14] is 88 % of control.

Turning to `COc1ccc(Cl)cc1NC(=O)c1ccc(Cl)cc1Cl`, the T/C is 100 % of control (dose: 100.0 mg/kg/injection, schedule: Q04DX003 (ip), vehicle: saline with Tween-80); 97 % of control (dose: 200.0 mg/kg/injection, schedule: Q04DX003 (ip), vehicle: saline with Tween-80); 95 % of control (dose: 400.0 mg/kg/injection, schedule: Q04DX003 (ip), vehicle: saline with Tween-80).

Consider `CC(=O)NC(CC(C)C)C(=O)NC(Cc1ccccc1)C(=O)CCl` (stereo not drawn) (Ac-Leu-Phe-CH2Cl; configuration not given here), for which the T/C (dose: 1.56 mg/kg/injection, schedule: Q01DX009 (ip), vehicle: Klucel (hydroxypropylcellulose) (HPC)) was 100 % of control; the T/C under setting [22] was 100 % of control; the T/C under setting [10] is 96 % of control and 97 % of control.

As to `CC1=C(C)C(=O)O[C@@H]([C@](C)(O)[C@]2(O)CC[C@@]3(O)[C@@H]4C[C@H]5O[C@]56CC=CC(=O)[C@]6(C)[C@H]4CC[C@]23C)C1`, the T/C is 102 % of control (dose: 0.78 mg/kg/injection, schedule: Q01DX009 (ip), vehicle: saline) and 114 % of control (dose: 1.56 mg/kg/injection, schedule: Q01DX009 (ip), vehicle: saline).

As for `NC(N)=NCCCC(N)C(=O)NC(CCC(=O)O)C(=O)O` (stereo not drawn) (H-Arg-Glu-OH; configuration not given here), the T/C is 108 % of control under setting [4]; 96 % of control under setting [5]; 104 % of control under setting [6]; 102 % of control under setting [11]; 101 % of control (dose: 400.0 mg/kg/injection, schedule: Q01DX009 (ip), vehicle: saline).

For `Cc1ccc(C2NC(=O)c3ccccc3N2)c(C)c1` (centres undefined), the T/C under setting [17] was 109 % of control, the T/C under setting [18] was 109 % of control and the T/C under setting [20] is 109 % of control.

The record behind these values is PubChem BioAssay AID192 (DTP/NCI, 2004).
